Patent publication US5216024A, “Cell growth inhibitors and methods of treating cancer and cell proliferative diseases” (Baylor College of Medicine, priority 1988, dated 1993)
Entries after “also recorded” stand apart in the source; their conditions may differ. Where two headings read alike, the source gives them in different places. Each block holds one compound with its values, some of them ahead of it.

Columns and labels:
[1] = system: cell growth and proliferation in normal and malignant cells; assay: Cell growth / tumor proliferation inhibition (general statement); format: cell-based
[2] = system: estradiol stimulation of uterine growth (rat uterus); assay: Uterotropic assay: block of estradiol stimulation of uterine growth in immature female rats; format: in vivo; settings: for GROWTH INHIBITION (%): 10 μg compound, block of estradiol stimulation in the rat uterotropic assay; for block of estradiol stimulation of uterine growth (in words): immature rat, FIGS. 14, 15
Method: The rat uterus is exquisitively sensitive to estrogen, and this hormone stimulates uterine cellular hypertrophy, hyperplasia and DNA synthesis within 24 hours following a single injection. Estradiol stimulation of nuclear Type II sites is a prerequisite for these responses. This assay includes injecting immature female rats with saline-ethanol vehicle, estradiol-17β and the test compound of interest. Control rats were injected only with saline-ethanol vehicle and estradiol-17β. The rats were sacrificed 24 hours later and the uterine wet and dry weights were determined. The wet and dry weight measurements are well defined biochemical end points of estrogen action and are a direct index of changes in cell proliferation and DNA synthesis.
estradiol stimulation in the rat uterotropic assay.

[3] = system: nuclear Type II estrogen binding sites; assay: Inhibition assay: [3H]estradiol binding to nuclear Type II sites (uterine nuclei from estrogen-implanted ovariectomized rats); set-up: species or system rat; settings: for IC50: Table I, read-out: TYPE II INHIBITION: concentration (nM) times 10^-2 to inhibit nuclear Type II binding sites by 50%
Method: Tissue was dissected from host animals, weighed, rinsed in saline, and homogenized in 10 mM Tris-1.5 mM EDTA, by approximately four 30-sec bursts in a Sorval Omnimixer with intermittent cooling for about 5 min. This crude homogenate was transferred to a Kontes ground glass homogenizer and further homogenized with intermittent cooling until no tissue aggregates were visible. It was imperative that the homogenate be kept cold, about 4° C. through all homogenization steps. The final homogenate was centrifuged at 800×g for approximately 20 min to obtain the crude nuclear pellet, which was then washed by gentle resuspension in a Dounce homogenizer and then centrifuged at 800×g for approximately 7 min. The final washed nuclear pellet was resuspended in 10 mM Tris-1.5 mM EDTA in a concentration ranging from 5 to 50 mg of fresh tissue equivalents/ml. By the term "fresh tissue equivalent" is meant the amount of material which represents the initial concentration in the fresh uterine tissue.
To assess total and nonspecific binding, aliquots of the nuclear suspension were incubated at 37° C. for 30 min with various concentrations ranging from 2 to 40 nM of [^3 H]estradiol with and without a large molar excess of diethylstilbestrol. The diethylstibestrol concentration ranged from 0.6 to 12.0 μM. Following incubation, the nuclear pellets were resuspended in about 1 ml of 10 mM Tris-1.5 mM EDTA buffer and centrifuged at 800×g for about 7 min. The pellet was extracted with 1 ml of ethanol at about 30° C. for about 30 min, and counted in 4 ml of Liquifluor. Specific binding was determined by substraction of nonspecific binding; i.e., not competable by diethylstilbestrol from the total quantity of [^3 H]estradiol bound. Results were expressed as sites/cell, assuming 8 pg of DNA/cell nucleus and that each binding site binds one molecule of [^3 H]estradiol.
In order to assess the levels of this inhibitor activity in various tissue cytosols and LH-20 column chromatography fractions from these cytosols, the following inhibition assay was used. Uterine nuclei were prepared from estrogen-implanted, adult-ovariectomizedrats. The washed nuclear pellet was diluted to 10 mg of fresh uterine equivalents/ml. At this concentration the effects of the endogenous inhibitor were minimal, and nuclear Type II sites bound maximum quantities of [^3 H]estradiol. Aliquots of these nuclei and the inhibitor sample were incubated at about 4° C. for approximately 60 min in the presence of 40 nM of [^3 H]estradiol with and without 12 μM diethylstilbestrol. Under these conditions, nuclear Type II sites were quantitatively measured without interference from Type I sites. The nuclear pellets were resuspended in 1 ml of 10 mM Tris-1.5 mM EDTA and centrifuged, ethanol extracted, and counted. The results were expressed as the percentage of [^3 H]estradiol bound as compared to the buffer control, or as the percentage of inhibition where 100% bound was 0% inhibition and was equivalent to approximately 45,000 cpm.
Thus, more nuclear Type II sites are measured in dilute than in concentrated nuclei. […] The uterine nuclei were prepared as previously described in Markaverich, B. M. et al., J. Biol. Chem. 258:11663-11671 (1983), the disclosure of which is herein incorporated by reference. Briefly, uterine nuclei after preparation were diluted in 10 mM Tris, 1.5 mM EDTA buffer in final volumes equivalent to 10, 20 or 40 mg fresh uterine equivalents per ml, and assayed for estrogen binding sites by [^3 H]estradiol exchange at 37° C. for 30 minutes. Specific binding was determined by subtraction of non-specific binding, i.e., non-competable with 300-fold excess diethylstilbestrol, from the total quantity of [^3 H]estradiol bound. […] Briefly, acid-precipitated, boiled cytosol from rat uterus, mouse mammary tumor and normal mouse mammary gland was diluted as shown on FIG. 2 and evaluated for inhibitor activity. […]

esterase = assay: Stability to esterase cleavage; format: in vitro ADME
[4] = system: MCF-7 human breast cancer cells; assay: MCF-7 cancer cell assay; format: cell-based; settings: FIG. 12; 1-10 μg/ml, 6 days
Excerpt: To assay for tumor growth sensitivity the MCF-7 human breast cancer cell line in tissue culture was used. One skilled in the art will recognize that this is an excellent model system to assess the effects of hormones and drugs on human cancer cell growth and proliferation. The MCF-7 cells have both Type I and nuclear Type II estrogen receptor sites and respond in a proliferative fashion to estrogenic hormones. Furthermore, they are inhibited by well-known anti-estrogens such as Tamoxifen. The MCF-7 cells were plated at 5×10^5 cells/dish in 30 mm petri dishes and grown in Dulbecco's Modified Eagles Medium containing about 10% charcoal stripped fetal bovine serum for approximately 48 hours. During this interval, the cells attached to the plastic dishes and then underwent exponential growth with a cell-doubling time of approximately 24 hours. The plated cells were allowed to attach for approximately 48 hours and the medium was replaced ("day zero"). The cells were allowed to grow exponentially for about 6 days. […] On day 6 the cells were harvested, counted on a hemocytometer and DNA content per dish was determined by the Burton assay (Burton, K., Biochem. J. 62:315-323, 1956). Results are expressed as cells/dish or DNA content (μg/dish) at 6 days following treatment. […]

[5] = system: MCF-7 human breast cancer cells; settings: general knowledge statement; cited from earlier work
[6] = system: estradiol stimulation of uterine growth (rat uterus); settings: background statement; cited from earlier work
malignant (tumor) cells = assay: Metabolism / inactivation by malignant cells; format: in vitro ADME
[7] = listed as methyl p-hydroxyphenyllactate

Compound: CC(=O)CCc1ccc(O)cc1 [1-(4-hydroxyphenyl)-3-butanone]
inhibition in culture and in vivo relative to MeHPLA (in words) ([1]; culture and in vivo): a better inhibitor in culture and in vivo
GROWTH INHIBITION (%) [2]: 96%
block of estradiol stimulation of uterine growth (in words) [2]: antitumor proliferative activity in the uterotropic assay; also recorded: blocks estradiol stimulation of uterine growth when injected into immature rats
binding to / inhibition of nuclear Type II sites (in words) [3]: bind to Type II sites; also recorded: binds to the nuclear Type II sites with a high affinity
IC50 [3]: 200 nM
stability (in words) (esterase): not subject to the esterase cleavage; also recorded: more stable

Compound: CC/C(=C(\c1ccccc1)c1ccc(OCCN(C)C)cc1)c1ccccc1 [Tamoxifen]
inhibition of MCF-7 cells by known anti-estrogens [5]: inhibited

Compound: CCN(CC)CCOc1ccc(C(=C(Cl)c2ccccc2)c2ccccc2)cc1 [clomiphene]
inhibition of nuclear Type II sites associated with antagonism of uterotropic responses to estrogen [6]: associated with antagonism of uterotropic responses to estrogen

Compound: C[C@@H]1C[C@H]2[C@@H]3CCC4=CC(=O)C=C[C@]4(C)[C@@]3(F)[C@@H](O)C[C@]2(C)[C@@]1(O)C(=O)CO [dexamethasone]
inhibition of nuclear Type II sites associated with antagonism of uterotropic responses to estrogen [6]: associated with antagonism of uterotropic responses to estrogen

Compound: COc1ccc2c(c1)CCC(c1ccccc1)=C2c1ccc(OCCN2CCCC2)cc1 [nafoxidine]
inhibition of nuclear Type II sites associated with antagonism of uterotropic responses to estrogen [6]: associated with antagonism of uterotropic responses to estrogen

Compound: CC(=O)[C@H]1CC[C@H]2[C@@H]3CCC4=CC(=O)CC[C@]4(C)[C@H]3CC[C@]12C [progesterone]
inhibition of nuclear Type II sites associated with antagonism of uterotropic responses to estrogen [6]: associated with antagonism of uterotropic responses to estrogen

The next lines start with results.

binding to / inhibition of nuclear Type II sites (in words) [3]: bind to Type II sites
Compound: CCC(=O)CCc1ccc(O)cc1 [1-(4-hydroxyphenyl)-3-pentanone]
block of estradiol stimulation of uterine growth (in words) [2]: antitumor proliferative activity in the uterotropic assay

IC50 [3]: 8000 nM
fold lower affinity for nuclear Type II sites than methyl p-hydroxyphenyllactate ([3]; vs MeHPLA): 20 fold
Compound: O=C(O)C(O)Cc1ccc(O)cc1 (centres unmarked) [3-(4-hydroxyphenyl)-2-hydroxypropionic acid, reference compound]
cell growth inhibition / antitumor activity (in words) [1]: inhibits the cell growth much less effectively
GROWTH INHIBITION (%) [2]: 0%
block of estradiol stimulation of uterine growth (in words) ([2]; listed as hydroxyphenyllactic acid): higher doses of hydroxyphenyllactic acid showed some partial antagonism; also recorded: but not hydroxyphenyllactic acid
binding to / inhibition of nuclear Type II sites (in words) [3]: low binding affinity for nuclear Type II sites
inhibition of MCF-7 human breast cancer cells [4]: did not

IC50 [3]: 100 nM
Compound: COC(=O)C=Cc1ccc(O)c(O)c1 [methyl 3-(3,4-dihydroxyphenyl)-2-propenoate]
GROWTH INHIBITION (%) [2]: 70%

IC50 [3]: 600 nM
Compound: COC(=O)C=Cc1ccc(O)c(OC)c1 [methyl 3-(4-hydroxy-3-methoxyphenyl)-2-propenoate]
GROWTH INHIBITION (%) [2]: 56%

metabolism / inactivation by malignant cells (in words) (malignant (tumor) cells; listed as MeHPLA): malignant cells metabolize MeHPLA
IC50 [3]: 80 nM
fold more effective in inhibiting [3H]estradiol binding to nuclear Type II sites than the free acid (HPLA) ([3]; competition analysis, FIGS. 8 and 9, vs HPLA): approximately 20 fold
Compound: COC(=O)C(O)Cc1ccc(O)cc1 (centres unmarked) [methyl 3-(4-hydroxyphenyl)-2-hydroxypropionate]
metabolism / inactivation by malignant cells (in words) (malignant (tumor) cells; [7]): tumor cells have the ability to inactivate methyl p-hydroxyphenyllactate
cell growth inhibition / antitumor activity (in words) ([1]; listed as MeHPLA): cell growth and proliferation are inhibited; also recorded: cell growth and proliferation of non-malignant tissues are slowed down or stopped
GROWTH INHIBITION (%) [2]: 90%
block of estradiol stimulation of uterine growth (in words) ([2]; listed as MeHPLA): block estrogen stimulation of normal cell growth such as that in the rat uterus
block of estradiol stimulation of uterine growth (in words) [2, 7]: block estradiol stimulation of uterine growth in the immature rat
inhibition of MCF-7 human breast cancer cells [4]: inhibited MCF-7 breast cancer cells in a similar dose-dependent fashion

IC50 [3]: 80 nM
Compound: COC(=O)COc1ccc(O)cc1 [methyl (4-hydroxyphenoxy) acetate, methyl (4-hydroxyphenoxy)acetate]
GROWTH INHIBITION (%) [2]: 70%
